Data taken from patent US11160887B2, “Compositions for use in diagnosing and treating melanoma, including metastatic melanoma and methods related to same” (UNM RAINFOREST INNOVATIONS, priority 2008, dated 2021).
Where two headings read alike, the source gives them in different places. Residues, ends and D or L forms follow the SMILES beside them.

Columns and labels:
[1] = Biodistribution in normal C57 mice; assay type: in vivo; settings: C57, mouse, lung, iv, 0.037 MBq, total radioactivity
Experimental: (§1) Biodistribution Studies: All the animal studies were conducted in compliance with Institutional Animal Care and Use Committee approval. B16/F10 pulmonary metastatic melanoma model was established by injecting 0.2 million of cultured B16/F10 cells into each C57 mouse (Harlan, Indianapolis, Ind.) through the tail vein. The B16/F10 pulmonary metastatic melanoma-bearing C57 mice were used for biodistribution studies 16 days after the cell injection. The pharmacokinetics of ^111In-DOTA-GlyGlu-CycMSH was determined in B16/F10 pulmonary metastatic melanoma-bearing and normal C57 mice. HPLC-purified 0.037 MBq of ^111In-DOTA-GlyGlu-CycMSH was injected into each mouse through the tail vein. Groups of 5 mice were sacrificed at 2, 4 and 24 h post-injection, and tumors and organs of interest were harvested, weighed and counted. Blood values were taken as 6.5% of the whole-body weight. Statistical analysis was performed using the Student's t-test for unpaired data.

[2] = test system: B16/F10 pulmonary metastatic melanoma-bearing C57 mice; test: Biodistribution in B16/F10 pulmonary metastatic melanoma-bearing C57 mice; assay type: in vivo, mouse
Experimental: as §1

[3] = as above; assay type: in vivo, mouse; settings: C57, mouse, iv, 0.037 MBq, total radioactivity
Experimental: as §1

[4] = Stability in mouse serum monitored by RP-HPLC; assay type: in vitro ADME; settings: 37° C., 24 h incubation
Experimental: Complexation of the Peptide with ^111In: ^111In-DOTA-CycMSH and ^111In-DOTA-GlyGlu-CycMSH were prepared using a 0.5 M NH4OAc-buffered solution at pH 5.4. Briefly, 50 μl of ^111InCl3 (18.5-37.0 MBq in 0.05 M HCl), 10 μl of 1 mg/ml DOTA-CycMSH or DOTA-GlyGlu-CycMSH aqueous solution and 400 μl of 0.5 M NH4OAc (pH 5.4) were added into a reaction vial and incubated at 75° C. for 45 min. After the incubation, 20 μl of 0.5% EDTA aqueous solution was added into the reaction vial to scavenge potential unbound ^111In. The radiolabeled complexes were purified to single species by Waters RP-HPLC (Milford, Mass.) on a Grace Vadyc C-18 reverse phase analytical column (Deerfield, Ill.) using a 20-minute gradient of 16-26% acetonitrile in 20 mM HCl aqueous solution with a flowrate of 1 ml/min. Purified peptide samples were purged with N2 gas for 20 minutes to remove the acetonitrile. The pH of final solution was adjusted to 7.4 with 0.1 N NaOH and normal saline for animal studies. The stability of ^111In-DOTA-CycMSH and ^111In-DOTA-GlyGlu-CycMSH was determined by incubation in mouse serum at 37° C. according to the published procedure (20) for various time periods, and monitored for degradation by RP-HPLC.

[5] = test system: B16/F10 pulmonary melanoma metastases; assay type: in vivo, mouse; settings: mouse, in vivo
Experimental: Metastatic Melanoma Imaging: A pulmonary metastatic melanoma-bearing mouse was used for [^18F]FDG PET imaging 16 days after the cell injection and used for ^111In-DOTA-GlyGlu-CycMSH SPECT/CT imaging on next day (a time interval of 26 h) to compare the difference in detection efficiency between [^18F]FDG and ^111In-DOTA-GlyGlu-CycMSH. The mouse was injected with 35.15 MBq of commercial [^18F]FDG (Biotech, N. Mex.) via the tail vein. At 1 h post-injection, the mouse was anesthetized with 1.5% isoflurane and placed in the prone position near the center of the field of view of small animal PET (LabPET™) (Gamma Medica-Ideas, Sherbrooke, Quebec). A 30-min static scan was acquired, and the image was reconstructed by maximum likelihood estimation method (MLEM). The mouse was returned to the cage for recovery after the ^18F-FDG PET imaging study was completed. The same mouse was injected with 24.05 MBq of ^111In-DOTA-GlyGlu-CycMSH via the tail vein 24 h after the ^18F-FDG PET imaging study. The mouse was anesthetized with 1.5% isoflurane for small animal SPECT/CT (Nano-SPECT/CT®, Bioscan) imaging 2 h post-injection. The 6-min CT imaging was immediately followed by the focused SPECT imaging of lung. The SPECT scans of 24 projections were acquired and total acquisition time was 45 min. After the focused lung imaging, the mouse was sacrificed with CO2 inhalation for whole-body SPECT/CT imaging. The 9-min CT imaging was immediately followed by the SPECT imaging of whole-body. Reconstructed data from SPECT and CT were visualized and co-registered using InVivoScope (Bioscan, Washington D.C.). Necropsy analysis of the mouse was performed to confirm the pulmonary metastatic melanoma lesions after the SPECT/CT imaging studies were completed. To monitor the development of pulmonary melanoma metstases with ^111In-DOTA-GlyGlu-CycMSH, a pulmonary metastatic melanoma-bearing mouse was injected with 10.36 MBq of ^111In-DOTA-GlyGlu-CycMSH through the tail vein for small animal SPECT/CT imaging 20 days after the cell injection. […]

CCCC[C@@H]1NC(=O)[C@@H](NC(=O)[C@H](CCC(=O)O)NC(=O)CNC(=O)CN2CCN(CC(=O)O)CCN(CC(=O)O)CCN(CC(=O)O)CC2)CCCCNC(=O)[C@H](CC(=O)O)NC(=O)[C@H](C(C)C)NC(=O)[C@@H]2CCCN2C(=O)[C@H](CCCNC(=N)N)NC(=O)CNC(=O)[C@H](Cc2c[nH]c3ccccc23)NC(=O)[C@H](CCCNC(=N)N)NC(=O)[C@@H](Cc2ccccc2)NC(=O)[C@H](Cc2c[nH]cn2)NC(=O)[C@H](CCC(=O)O)NC1=O [^111In-DOTA-GlyGlu-CycMSH, metal not drawn] (HELM PEPTIDE1{[O=C(O)CN1CCN(CC(=O)O)CCN(CC(=O)[*:2])CCN(CC(=O)O)CC1].G.E.K.[Nle].E.H.[dF].R.W.G.R.P.V.D}$PEPTIDE1,PEPTIDE1,4:R3-15:R2$$$V2.0)
tissue uptake at 2 h ([1]; 2 h post-injection): 0.08 ± 0.08 %ID/g
tissue uptake at 4 h ([1]; 4 h post-injection): 0.05 ± 0.05 %ID/g
tissue uptake at 24 h ([1]; 24 h post-injection): 0.03 ± 0.02 %ID/g
uptake in metastatic melanoma-bearing lung relative to normal lung ([2]; 2 h post-injection): 25.0 times
uptake in metastatic melanoma-bearing lung relative to normal lung ([2]; 4 h post-injection): 36.6 times
uptake in metastatic melanoma-bearing lung relative to normal lung ([2]; 24 h post-injection): 9.7 times
dose excreted ([3]; in vivo, at 24 h post-injection, read-out: injected radioactivity cleared out the body): ~96%
tissue uptake at 2 h ([3]; metastatic melanoma-bearing lung, 2 h post-injection, 16 days post the cell injection): 2 ± 0.74 %ID/g
tissue uptake at 4 h ([3]; metastatic melanoma-bearing lung, 4 h post-injection, 16 days post the cell injection): 1.83 ± 0.12 %ID/g
tissue uptake at 24 h ([3]; metastatic melanoma-bearing lung, 24 h post-injection, 16 days post the cell injection): 0.29 ± 0.06 %ID/g
dose excreted ([3]; urine, by 2 h post-injection, read-out: injected radioactivity cleared through the urinary system): ~84%
stability in mouse serum [4]: stable
accumulation of activity in normal organs in whole-body image [5]: extremely low except for the kidneys
